# Assay results from patent publication US20060234919A1, “Use” (priority 2001, published 2006).
# Like-named read-outs stand apart in the source and are kept apart here.
# Tests used:
# [1] = system: carrageenan induced edema; assay: carrageenan induced edema of the rat hindpaw (plethysmometer); format: in vivo; settings: for carrageenan induced edema, percentage increase from pre-treatment values in hindpaw volume: 1000 μg/kg s.c., p<0.05
# Protocol: Male Sprague-Dawley rats (260-300 g for s.c. injected and 340-380 g for i.c.v. injected) were used (B&K Universal A B, Sollentuna, Sweden). The animals arrived at least one week before experiments and were housed three-four per cage (except animals provided with i.c.v. cannulas that were housed individually) with free access to food (R36, Ewos, Södertälje, Sweden) and water. The light schedule was a 12/12 h light/dark cycle, and ambient temperature was 20±2° C.
# Oxytocin and the oxytocin antagonist (1-deamino-2-D-Tyr-(OEt)-4-Thr-8-Orn-oxytocin) (Ferring, Malmö, Sweden) were dissolved in physiological saline and injected in a volume of 1 ml/kg s.c. in the dorsal neck. Dexamethasone (Decadron®, Merck, Sharp & Dome, USA) was administered intramuscularly (i.m.). Oxytocin given i.c.v. was dissolved in a volume of 5 μl physiological saline and slowly injected over a period of 1 minute through the i.c.v. guide cannula via a 25 G stain-less-steel injection needle connected to a 10 μl Hamilton syringe via a polyethylene tube. Controls received saline in the same amounts.
# The model of inflammation used, the carrageenan induced edema, is a commonly used model for studies of inflammation and for testing novel anti-inflammatory drugs (Winter C A, Risley E A, Nuss G W. Carrageenan-induced edema in hind paw of the rat as an assay for anti-inflammatory drugs. Proc Soc Exp Biol Med 1962; 111:544-7). To produce acute inflammation, carrageenan, 2 mg in 0.1 ml saline, was injected s.c. into the plantar region of the rat right hindpaw.
# The rats were treated s.c. with oxytocin (1.0, 10, 100 or 1000 μg/kg (n=8 in each group) or saline (n=8+8) immediately before the carrageenan injection. The edema of the right hindpaw was measured (volume in ml) using a plethysmometer (Ugo Basile, type 7150, Florence, Italy) before treatment, half an hour after, one hour after, and then every hour up to 6 or 10 hours after treatment.
# The results are presented as means±SD. Statistical analysis was performed by means of a 1-way ANOVA, followed by Fisher's test for post-hoc comparisons. In the analysis of myeloperoxidase accumulation, a Student's t-test was used. P-values of 0.05 or less were regarded as statistically significant.
# The rats were treated s.c. with oxytocin (1000 μg/kg) and the oxytocin antagonist (1000 μg/kg) (the antagonist was given 30 minutes before oxytocin) (n=8), the oxytocin antagonist alone (1000 μg/kg) (n=8) or saline (n=8) immediately before the carrageenan injection. Measurements as in Example 1.
# The rats were treated i.c.v. with oxytocin (1.0 μg/kg) (n=6) or saline (n=7) immediately before the carrageenan injection. Measurements as in Example 1. The animals were anaesthetised with sodiumpentobarbital (50 mg/kg) (Apoteksbolaget, Sweden) injected intraperitoneally (i.p.). The scull was uncovered, a hole was drilled in the right parietal bone and a guide cannula (21 G) was fixed stereotactically to the scull by means of acrylic dental cement. The coordinates were 1.00 mm posterior and 1.30 mm lateral to the bregma. […] The injection needles (25 G) reached 3.80 mm below the dura mater, with the tip of the needle in the right lateral ventricle. The animals were allowed one week of recovery after the operation. At the end of the experiment, the placement of the guide cannula was checked by injection of 2 μl of toluidine blue.
# The rats were treated i.m. with dexamethasone (10 mg/kg) (n=6) or saline (n=6) immediately before the carrageenan injection. The edema of the right hindpaw was measured using the plethysmometer before treatment, and at 2, 4 and 6 hours after treatment.
# [2] = system: myeloperoxidase; assay: carrageenan induced myeloperoxidase accumulation in the hindpaw; format: in vivo, rat; settings: 1000 μg/kg s.c.; 6 hours after treatment; saline controls 5.4±1.1; p<0.01
# Protocol: The rats were treated s.c. with oxytocin (1000 μg/kg) (n=6) or saline (n=6) immediately before the carrageenan injection. The accumulation of myeloperoxidase in the rat right hindpaw was measured 6 hours after the treatment with oxytocin or saline, and carrageenan. To determine the recruitment of neutrophils in response to the carrageenan induced inflammation in the rat hindpaw, the paws were weighed and homogenised in 10 ml 0.5% hexadecyltrimethyl-ammonium bromide (Sigma Chemical Co, USA), and freeze-thawed, whereafter the myeloperoxidase activity of the supernatant was assessed. The enzyme activity was determined spectrophotometrically as the change in absorbance at 650 nm (25° C.) occuring in the redox reaction of H2O2-tetramethylbenzidine (Sigma Chemical Co, USA) catalysed by myeloperoxidase. Values are expressed as myeloperoxidase units/g tissue. […] The myeloperoxidase concentration (i.e. the neutrophil recruitment) in the hindpaw was 3.5±0.72 units/g tissue in the oxytocin-treated rats compared to 5.4±1.1 units/g in the saline-treated controls (p<0.01) (FIG. 6).
# [3] = system: xylene-induced cystitis; assay: xylene-induced cystitis, plasma protein extravasation (Evans blue); format: in vivo, rat; settings: 1 mg/ml s.c. 1 h before xylene; 2 h after instillation; xylene alone 13.21±3.68; p<0.01
# Protocol: Rats were anaesthetised with pentobarbital sodium and phenobarbitone sodium as above. Following i. v. injection of Evans blue (20 mg/kg, i. v.), the urinary bladder was cannulated via the urethra using a polyethylene tubing and […] xylene (30% v/v in silicone oil) were instilled within 10 s. The cannula was then left in place for a further period of 10 s. Two hours later, the animals were injected with an overdose of pentobarbitone sodium and the bladder was removed. Evans blue was extracted by incubation of the tissue in 4 ml formamide for 24 h at 55° C. for subsequent photometric measurements at 620 nm.
# Plasma protein extravasation in the urinary bladder of anaesthetised rats was made 2 h after intravesical instillation of 30% (v/v) xylene […]. Control animals were treated with appropriate volumes of the vehicles ([…] silicone oil or 4 ml/kg 154 mmol/l NaCl solution, respectively). Oxytocin (1 mg/ml) was injected s. c. 1 h before administration of xylene or cyclophosphamide while control rats received DMSO (0.5 ml/kg, s. c.). Plasma protein extravasation is given as total tissue content of the protein marker, Evans blue, given i. v. (20 mg/kg) 5 min prior to the induction of cystitis.
# Oxytocin was dissolved and diluted in DMSO for all experiments involving s. c. injection in volumes of 1.0 ml/kg. […]
# [4] = system: ischaemic musculocutaneous skin flaps; settings: previously shown by the inventors, cited from earlier work
substance,measurement,setting,value
Oxytocin,effect on carrageenan induced paw edema,"[1]; 1.0 μg/kg i.c.v., p=0.13",did not decrease the paw edema
same,effect on carrageenan induced edema,[1]; 1.0 μg/kg s.c.,No effect
same,effect on carrageenan induced edema,[1]; 10 μg/kg s.c.,No effect
same,effect on carrageenan induced edema,"[1]; 100 μg/kg s.c., 4-10 hours after the injection",reduced the edema significantly
same,"carrageenan induced edema, percentage increase from pre-treatment values in hindpaw volume","[1]; 1 hour after the injection, saline controls 43±11%",21±16%
same,"carrageenan induced edema, percentage increase from pre-treatment values in hindpaw volume","[1]; 2 hours after the injection, saline controls 61±22%",30±17%
same,"carrageenan induced edema, percentage increase from pre-treatment values in hindpaw volume","[1]; 3 hours after the injection, saline controls 79±21%",41 ±16%
same,hindpaw volume compared to controls,"[1]; oxytocin 1000 μg/kg s.c. with oxytocin antagonist 1000 μg/kg s.c. given 30 minutes before, 1-10 hours after carrageenan",significant reduction of the hindpaw volume
same,hindpaw volume compared to controls,"[1]; oxytocin 1000 μg/kg s.c. with oxytocin antagonist 1000 μg/kg s.c., at 24 hours",significant difference was gone
same,myeloperoxidase concentration (neutrophil recruitment) in the hindpaw,[2],3.5±0.72 units/g tissue
same,"plasma protein extravasation, total Evans blue content of the urinary bladder",[3],5.14 ± 2.58 mg
same,survival of ischaemic musculocutaneous skin flaps,[4]; 1 μg/kg i.c.v.,increases the survival
same,survival of ischaemic musculocutaneous skin flaps,[4]; 1 mg/kg s.c.,induced the same effect
